In patent US4165371A, “1,2,3,4,5,6-Hexahydro-1,6-methano-3-benzazocines” (priority 1976, dated 1979):

Key:
[1] = format: in vivo; settings: mouse hot plate, intravenous; for ED50: range in parentheses
Protocol: (c) The presence of certain N-substituents would confer antagonist activity on members of this new ring system, Tests for analgesic activity were conducted using intravenous administration in the reliable Eddy mouse hot plate assay described in J. Pharmacol. Exp. Ther. […] (1953). The results are set forth in Table 1, together with the activities of morphine and codeine reported as evaluation standards.

[2] = test system: Non-withdrawn, morphine dependent monkeys; assay: Attempted precipitation of abstinence in non-withdrawn, morphine-dependent monkeys (NW); format: in vivo, monkey; settings: for Effects, precipitation of abstinence signs (NW): 2 monkeys
[3] = test system: morphine dependent monkeys; assay: Physical dependence liability testing, overall evaluation; format: in vivo, monkey; settings: for Estimated Physical Dependence Capacity: at doses tested
Protocol: (§1) Physical Dependence Liability testing was conducted on Compounds A, B, C and F of Table 1. For determining Single Dose Suppression (SDS) data monkeys, physically dependent on 3.0 mg/kg of morphine sulfte q6H, were withdrawn until abstinence signs of intermediate severity were present (12-14 hours). The coded drug was injected at this time by persons other than the observer. The monkeys were graded just prior to injection and at intervals of 1/2, 1, 2, 3, 4, 5 and 6 hours after injection. Grades were based on withdrawal intensity or opiate-like depression and side effects, if present. The results are shown in Tables 2 through 5 together with evaluations thereof by Dr. Henry H. Swain at the University of Michigan. Dosages are in mg/kg.

[4] = test system: monkeys, physically dependent on morphine; assay: Physical dependence liability: Single Dose Suppression (SDS) in withdrawn morphine-dependent monkeys; format: in vivo, monkey; settings: 2 monkeys
Protocol: as §1

[5] = test system: Normal monkeys (not dependent on morphine); assay: Normal monkeys (not dependent on morphine): attempt to elicit the narcotic syndrome; format: in vivo, monkey

Structure (SMILES)	duration [1] [min]	onset [1] [min]	peak [1] [min]	ED50 [1]	Estimated Physical Dependence Capacity [3]	Effects, Single Dose Suppression ([4]; 2.0 mg/kg)	further results
c1ccc(CCN2CCC3CC(C2)c2ccccc23)cc1 (centres unmarked)	123	4.7	25.6	8.8 (6.2-12.5) mg/kg			
CCCN1CCC2CC(C1)c1ccccc12 (centres unmarked)	120	3.6	32.1	16.2 (11.7-22.4) mg/kg			
c1ccc2c(c1)C1CCNCC2C1 (centres unmarked) [A]	97.5	3.3	18.0	4.9 (3.6-6.5) mg/kg	Not morphine-like	No apparent effect	morphine antagonism [2]: not morphine antagonists; precipitation of the morphine abstinence syndrome [2]: no such result was observed; narcotic signs [5]: no obvious narcotic signs were observed; Narcotic signs in normals ([5]; 8.0 mg/kg, 2 monkeys): No obvious narcotic signs
CN1CCC2CC(C1)c1ccccc12 (centres unmarked) [B]	104	3.2	20.3	4.2 (2.6-6.7) mg/kg	Little or none at doses tested	No apparent effect	morphine antagonism [2]: not morphine antagonists; precipitation of the morphine abstinence syndrome [2]: no such result was observed; Effects, precipitation of abstinence signs (NW) ([2]; 4.0 mg/kg): No obvious effect; Effects, precipitation of abstinence signs (NW) ([2]; 8.0 mg/kg): No obvious effect; Effects, Single Dose Suppression ([4]; 4.0 mg/kg): No obvious effect; narcotic signs [5]: no obvious narcotic signs were observed
c1ccc2c(c1)C1CCN(CC3CC3)CC2C1 (centres unmarked) [C]					None		Remarks: direct effects / convulsions ([3]; doses tested): The drug causes convulsions; Dose estimated to be equivalent to 3.0 mg/kg of morphine sulfate ([3]; evaluation in words): Not morphine-like; Effects, Single Dose Suppression ([4]; 5.0 mg/kg): No obvious effect; Effects, Single Dose Suppression ([4]; 10.0 mg/kg): No obvious effect
C=CCN1CCC2CC(C1)c1ccccc12 (centres unmarked) [F]	119	3.2	16.3	19.4 (13.1-28.7) mg/kg	None	No apparent effect	Effects, Single Dose Suppression ([4]; 1.0 mg/kg): No apparent effect; Effects, Single Dose Suppression ([4]; 4.0 mg/kg): No apparent effect; Effects, Single Dose Suppression ([4]; 8.0 mg/kg): No apparent effect; Effects, Single Dose Suppression ([4]; 16.0 mg/kg): No obvious effect
COc1ccc2c3c1O[C@H]1[C@@H](O)C=C[C@H]4[C@@H](C2)N(C)CC[C@@]341 [codeine, reference compound]				7.5 (6.8-8.3) mg/kg			
CN1CC[C@]23c4c5ccc(O)c4O[C@H]2[C@@H](O)C=C[C@H]3[C@H]1C5 [morphine, reference compound]				1.2 (0.9-1.3) mg/kg			
